This note sets out measurements from PMC8706879 (Pharmaceuticals, 2021).

Like-named read-outs stand apart in the source and are kept apart here. Where a SMILES comes first, the peptide text is derived from it. Bridges are numbered along the chain shown (N, C = ends). [ ]: non-standard residue; d: D form. The star is where a group is joined. DOTA = O=C(O)CN1CCN(CC(=O)O)CCN(CC(=O)*)CCN(CC(=O)O)CC1; dPhe(4-NHCONH2) = NC(=O)Nc1ccc(C[C@@H](N)C(=O)O)cc1; Dihydroorotyl(S) = O=C1C[C@@H](C(=O)*)NC(=O)N1; Phe(4-Cl) = N[C@@H](Cc1ccc(Cl)cc1)C(=O)O; Phe(4-NH2) = Nc1ccc(C[C@H](N)C(=O)O)cc1 Where only a bound is given, the exact number is not on record here.

Broadly, the Kd is the free concentration of one partner at which half of the binding sites on the other are occupied at equilibrium, for simple one-to-one binding. A word on the koff: it is a measure of how fast the partners let go of each other.

The target in series [1] is T1, human SST2 (Homo sapiens, UniProt P30874). Description: biochemical. The method, then:
(§1) To prepare cell membranes, HEK-SST2 cells were grown to confluence, mechanically disaggregated, washed with PBS (pH 7.4) and re-suspended in 20 mM of homogenisation Tris buffer (pH 7.5) containing 1.3 mM EDTA, 0.25 M sucrose, 0.7 mM bacitracin, 5 µM soybean trypsin inhibitor and 0.7 mM PMSF. The cells were homogenised using Ultra-Turrax, and the homogenised suspension was centrifuged at 500× g for 10 min at 4 °C. The supernatant was collected in centrifuge tubes (Beckman Coulter Inc., Brea, CA, USA). This procedure was then repeated 5 times. The collected supernatant was centrifuged in an ultra-centrifuge (Beckman) at 4 °C for 55 min at 20,000 rpm (approximately 49,000× g). Then, the pellet was re-suspended in 10 mM ice-cold HEPES buffer (pH 7.5), aliquoted, and stored at −80 °C. The protein concentration of those membrane suspensions was determined by the Bradford method, BSA as the standard.
(§2) In all assays, non-specific binding of [^177Lu]Lu-OPS201 was determined using 1000-fold excess of the unlabelled SST2 antagonist OPS202, also known as NODAGA-JR11, (where NODAGA is 1,4,7-triazacyclononane,1-glutaric acid-4,7-acetic acid). […] All reported values refer to specific binding (total minus non-specific binding). The radioactivity of all samples was measured in a gamma-counter (COBRA 5003, Packard Instruments). For all binding experiments with membranes, bound radioligand was separated from the one remaining in solution by rapid vacuum filtration, using an M-48 Brandel Cell Harvester (Alpha Biotech Ltd., Glasgow, UK). The filters were dried before being measured in the gamma-counter.
The dissociation of those radioligands was initiated by adding a 1000-fold excess of either unlabelled Lu-OPS201, Lu-DOTA-TATE, DOTA-BASS or lanreotide and monitored for up to 3 h. To monitor the stability of the radioligand–receptor complex during this extended time period, the membranes were incubated with radioligand for up to 4 h.

For series [2], the system named is HEK-SST2 cells. The experiment in a line: Radioligand binding to and internalisation by intact HEK-SST2 cells. It is filed as cell-based, human. The settings on record: for cell surface bound fraction of total added radioligand / internalised fraction of total added radioligand: 4 h incubation at 37 °C, 2.5 nM. As for the experimental part:
The HEK-293 cell line expressing the T7-epitope tagged human SST2 (HEK-SST2) was provided by Prof. Stefan Schulz (Institute of Pharmacology and Toxicology, Jena University Hospital, Jena, Germany). HEK-SST2 cells were cultured at 37 °C and 5% CO2 in DMEM containing 10% FBS, 100 U/mL penicillin, 100 µg/mL streptomycin, […] L-glutamine, and 500 µg/mL geneticin (G-418).
(§3) In vitro assays on intact cells were performed with HEK-SST2 cells seeded in 6-well plates. The plates were pre-treated with a solution of 10% poly-lysine to promote cell attachment. HEK-SST2 cells (about 1 × 10^6 cells) were incubated in 1% (v/v) FBS containing medium at 37 °C/5% CO2 overnight. The day after, the cells were washed with medium, followed by incubation with the adjusted medium volume for 1 h prior starting the experiment.
as §2
After 0.5, 1, 2 and 4 h (one plate per time point), the medium was removed, and the plated cells were quickly washed twice with ice-cold PBS. The cells were then treated twice for 5 min with ice-cold glycine solution (0.05 M, pH 2.8) to detach the cell surface-bound radioligand (acid releasable). Afterwards, the cells containing the internalised radioligand were detached with 1 M NaOH at 37 °C and collected for measurement. The amount of specific cell surface-bound and internalised radioligand is expressed as a percentage of the total applied activity after subtracting the non-specific values.

Series [3] deals with HEK-SST2 cells. Description: Sub-cellular redistribution of cell surface-bound radioligand at 37 °C. It is filed as cell-based, human. The arrangement: reduction of initial surface-bound fraction: concentration or dose not given beside the values. As for the experimental part: as §3, §2
The cell surface-bound internalisation and dissociation rates of [^177Lu]Lu-OPS201 were studied in HEK-SST2 cells seeded in 6-well plates (10^6 cells/well), which were first placed on ice for 30 min. The experiment was started by adding 2.5 nM [^177Lu]Lu-OPS201 to the medium, and the incubation was carried out at 4 °C for 2 h to prevent internalisation of the radioligand. Afterwards, the cells were washed with ice-cold PBS, and 1 mL/well of fresh pre-warmed (37 °C) medium was added. One plate was immediately treated with ice-cold glycine solution, and then the cells were detached with NaOH to determine the initial surface-bound and internalised fraction. The other plates were incubated at 37 °C for 10, 20, 30, 60, 120 or 240 min (one plate per time point) before the same treatment. At the specified time points, the amount of radioactivity, presented as cell surface-bound, internalised and in medium redistributed radioligand, was expressed in percentage of the cell-associated fraction (surface bound and internalised uptake) at the onset of the redistribution step as control. All reported values have been corrected for non-specific uptake.

Series [4] concerns HEK-SST2 cells. Description: Externalisation of [^177Lu]Lu-DOTA-TATE by intact cells. It is filed as cell-based, human. As for the experimental part: (§4) In vitro assays on intact cells were performed with HEK-SST2 cells seeded in 6-well plates. The plates were pre-treated with a solution of 10% poly-lysine to promote cell attachment. HEK-SST2 cells (about 1 × 10^6 cells) were incubated in 1% (v/v) FBS containing medium at 37 °C/5% CO2 overnight. The day after, the cells were washed with medium, followed by incubation with the adjusted medium volume for 1 h prior starting the experiment. […] The cells were afterwards incubated at 37 °C under the same three different conditions as above. […] At the end, the cells were treated with NaOH and collected for measurement. All reported values were also normalised as described above. In both aforementioned experiments, the 37 °C washout medium was repeatedly refreshed in an attempt to limit any re-equilibration between free and cell-associated radioligand and to reduce the accumulation (and thus the rebinding) of radioligand molecules when they were already dispersed in the bulk of the naïve medium. All data were fitted according to the one-phase exponential decay equation (GraphPad Software Inc., Prism 7).

The target of series [5] is T1, human SST2. Description: Saturation binding on HEK-SST2 cell membranes. As for the experimental part:
as §1, §2
The incubation was initiated by adding 30 μL of radioligand solution at 10 times the final concentration and 100 μL of cell membrane suspension to yield 10 μg of protein per well.

In series [6] the test system is HEK-SST2 cells. Description: Dissociation/release of cell-associated [^177Lu]Lu-OPS201 by intact cells. It counts as cell-based, human. The conditions noted are these: after 4 h at 37 °C. As for the experimental part: as §4, with “then” for “afterwards”, “under three different conditions: […] At preselected time points, the medium was removed for quantification and replaced by fresh pre-warmed (37 °C) medium (either alone or with” for “under”, “unlabelled competitor).” for “three different conditions as above.”, “All” for “All reported”

[7] abbreviates: after 2 h pre-incubation at 4 °C.
The mark [8] stands for this setting: after 4 h of incubation at 37 °C.

T1 sequence (P30874 whole entry): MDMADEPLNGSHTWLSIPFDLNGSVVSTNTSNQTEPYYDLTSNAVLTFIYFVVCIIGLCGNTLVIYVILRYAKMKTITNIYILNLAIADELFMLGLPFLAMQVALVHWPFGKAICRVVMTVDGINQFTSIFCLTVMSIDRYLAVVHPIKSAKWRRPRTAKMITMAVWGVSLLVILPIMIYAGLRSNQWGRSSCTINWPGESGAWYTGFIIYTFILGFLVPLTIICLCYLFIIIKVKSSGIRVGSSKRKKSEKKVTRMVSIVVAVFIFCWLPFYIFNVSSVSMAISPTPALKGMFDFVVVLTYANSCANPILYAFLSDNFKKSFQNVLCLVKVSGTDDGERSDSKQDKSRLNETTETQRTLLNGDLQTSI

On to “H-D2Nal-c(Cys-Tyr-DTrp-Lys-Val-Cys)-Thr-NH2 [lanreotide, reference compound]”, for which the “displacement of specifically bound [^177Lu]Lu-OPS201 by the unlabelled agonist” value at human SST2 [1] (high concentration (1000-fold excess) of competitor, HEK-SST2 membranes) is reported as “no more than 30%”.

As for `C[C@@H](O)[C@H](NC(=O)[C@@H]1CSSC[C@H](NC(=O)[C@@H](Cc2ccccc2)NC(=O)CN2CCN(CC(=O)O)CCN(CC(=O)O)CCN(CC(=O)O)CC2)C(=O)N[C@@H](Cc2ccc(O)cc2)C(=O)N[C@H](Cc2c[nH]c3ccccc23)C(=O)N[C@@H](CCCCN)C(=O)N[C@@H]([C@@H](C)O)C(=O)N1)C(=O)O` [[^177Lu]Lu-DOTA-TATE, ^177Lu-oxodotreotide, metal not drawn], in the series with HEK-SST2 cells [2] (30 min of incubation at 37 °C), the internalised fraction result is “more than 50%”. In the series with HEK-SST2 cells [2], the “cell surface bound fraction of total added radioligand” value was 2 ± 1% and the “internalised fraction of total added radioligand” value was 77 ± 3%. Moreover, the “cell surface binding at 4 °C” value in the series on HEK-SST2 cells [3] (4 °C) is “very low cell surface binding”. Further, the “decrease of internalised radioligand during washout” value in the series on HEK-SST2 cells [4] (after 4 h in naïve medium, 37 °C) was “only partial”. For the same molecule, the “decrease of internalised radioligand during washout” value with HEK-SST2 cells [4] (after 4 h in the presence of an excess of Lu-DOTA-TATE and Lu-OPS201, 37 °C) is recorded as “nearly complete”.

For `C[C@@H](O)[C@@H]1NC(=O)[C@H](CCCCN)NC(=O)[C@@H](Cc2ccc(NC(N)=O)cc2)NC(=O)[C@H](Cc2ccc(NC(=O)[C@@H]3CC(=O)NC(=O)N3)cc2)NC(=O)[C@H](NC(=O)[C@H](Cc2ccc(Cl)cc2)NC(=O)CN2CCN(CC(=O)O)CCN(CC(=O)O)CCN(CC(=O)O)CC2)CSSC[C@@H](C(=O)N[C@H](Cc2ccc(O)cc2)C(N)=O)NC1=O` [[^177Lu]Lu-OPS201, ^177Lu-satoreotide tetraxetan, metal not drawn] ({DOTA}-[Phe(4-Cl)][dC][Phe(4-NH2)](Dihydroorotyl(S))[dPhe(4-NHCONH2)]KTC[dY]-NH2; disulfide 2-7), on human SST2 [5] (HEK-SST2 cell membranes 10 µg/well, 37 °C, single-site model), the Bmax stood at 0.37 ± 0.02 nM. Besides, on human SST2 [5] (HEK-SST2 cell membranes, 37 °C, single-site model), the Kd came out at 0.15 ± 0.003 nM. The “number of binding sites recognised relative to [^177Lu]Lu-DOTA-TATE” value at human SST2 [5] (saturation binding, HEK-SST2 cell membranes) was “about four times more sites”. Besides, the “dissociation t1/2” value on human SST2 [1] was 41 min; on human SST2 [1] (competitor: excess DOTA-BASS), 38 min. Moreover, the koff on human SST2 [1] (HEK-SST2 membranes, competitor DOTA-BASS) was 0.0003 s⁻¹; at human SST2 [1] (HEK-SST2 membranes, competitor Lu-OPS201), 0.000283 s⁻¹. For the same molecule, the “cell surface bound fraction of total added radioligand” value in the series with HEK-SST2 cells [2] is on record as 46 ± 2%. In addition, the “internalised fraction of total added radioligand” value in the series on HEK-SST2 cells [2] was 31 ± 1%. Besides, the “internalised fraction of added radioligand” value with HEK-SST2 cells [3] (setting [7]) is reported as 7%. Also, in the series on HEK-SST2 cells [3] (setting [7]), the “surface-bound fraction of added radioligand” value came to 54%. The “fraction released in the medium” value with HEK-SST2 cells [3] (after 4 h at 37 °C, undisturbed medium) is given as below 5%. In addition, the “internalised fraction (of cell-associated activity)” value in the series on HEK-SST2 cells [3] (setting [8]) is 24%; with HEK-SST2 cells [3] (t = 0 of 37 °C incubation) it was 12%. Moreover, the “reduction of initial surface-bound fraction” value in the series on HEK-SST2 cells [3] (setting [8]) was 17%. Further, the “surface-bound fraction (of cell-associated activity)” value was 71% in the series with HEK-SST2 cells [3] (setting [8]) and 88% in the series with HEK-SST2 cells [3] (t = 0 of 37 °C incubation). In addition, the radioligand released came to 40% in the series with HEK-SST2 cells [6] (repeatedly refreshed naïve medium) and 70% with HEK-SST2 cells [6] (washout medium with excess of unlabelled Lu-OPS201 or Lu-DOTA-TATE).
